Tests used:
P388/ADR = assay: In vivo activity against P388/adriamycin-resistant leukemia; set-up: species or system BDF1 mice; conditions: for P388/ADR optimal dose: ip, days 1, 5 and 9
Description: (§1) ^a Male BDF1 mice inoculated ip: 10^6 cells inoculum, day 0.
(§2) Drugs administered in 10% dimethyl sulfoxidesaline on days 1, 5 and 9. %
(§3) ILS = percent increase in life span. Fractions in parentheses = tumorfree
(§4) survivors/total on day 60. P388/S (adriamycin sensitive) and P388/ADR
(§5) (adriamycin resistant) tumors were evaluated in the same experiment with […]

P388/S = assay: In vivo activity against P388/S (adriamycin sensitive) leukemia, Table VII; set-up: species or system BDF1 mice; conditions: for P388/S % ILS / P388/S tumor-free survivors/total on day 60: at optimal dose; for P388/S optimal dose: ip, days 1, 5 and 9
Description: as §1, §2, §3, §4, §5

[1] = target: T1, NADPH cytochrome P-450 reductase (rat liver microsomes) (Rattus norvegicus, UniProt P00388); assay: Stimulation of NADPH oxidation in rat hepatic microsomal incubations; conditions: for NADPH oxid: 340 nm, 37° C., phenobarbital induced microsomes, mean ± standard error of triplicate, basal 9.11 ± 0.30; for percentage stimulation of NADPH oxidation over basal rate: (drug-stimulated rate - basal rate)/basal rate × 100
T1 sequence (P00388 1-678): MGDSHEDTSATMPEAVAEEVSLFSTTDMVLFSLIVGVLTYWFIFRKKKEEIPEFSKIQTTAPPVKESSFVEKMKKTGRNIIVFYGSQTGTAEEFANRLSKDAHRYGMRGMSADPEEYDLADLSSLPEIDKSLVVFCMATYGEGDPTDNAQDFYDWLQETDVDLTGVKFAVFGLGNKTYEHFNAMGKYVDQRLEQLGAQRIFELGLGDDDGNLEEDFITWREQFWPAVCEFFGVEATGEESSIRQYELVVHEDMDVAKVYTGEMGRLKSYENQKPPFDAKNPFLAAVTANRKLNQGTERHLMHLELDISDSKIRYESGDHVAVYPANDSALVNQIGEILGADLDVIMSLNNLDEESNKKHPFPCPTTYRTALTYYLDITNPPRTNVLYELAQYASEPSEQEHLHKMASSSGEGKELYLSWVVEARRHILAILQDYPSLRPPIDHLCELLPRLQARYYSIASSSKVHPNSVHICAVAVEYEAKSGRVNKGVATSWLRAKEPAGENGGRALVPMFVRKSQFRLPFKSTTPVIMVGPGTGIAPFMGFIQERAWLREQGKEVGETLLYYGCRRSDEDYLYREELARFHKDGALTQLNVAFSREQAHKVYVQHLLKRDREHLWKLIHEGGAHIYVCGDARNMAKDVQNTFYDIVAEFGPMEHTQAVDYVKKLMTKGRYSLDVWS

rat hepatic microsomes = assay: Stimulation of adrenochrome formation (superoxide generation) in rat hepatic microsomal incubations; conditions: no SOD; for adrenochrome formation: 480 nm, 37° C., no more than 100 μM drug, basal 2.11 ± 0.11
liver microsomes = assay: EPR detection of free-radical intermediates with liver microsomes and NADPH (anaerobic); assay type: biochemical; conditions: NADPH, potassium phosphate buffer
Description: No free-radical intermediates were detected in the absence of enzyme or substrates.
Melting points are determined on a Thomas-Hoover melting point apparatus at a heating rate of 2° C./min. Thin-layer chromatography was performed on silica gel plates (Brinkmann Instrument Inc.). Solvent systems were (A) EtOAc-acetone (4:1), (B) CHCl3 -MeOH (9:1) and (C) Cifferri, the organic phase of the mixture EtOAc-MeOH-H2 O (20:1:20). High-performance liquid chromatography was carried out on a Varian Model 5020 gradient liquid chromatograph equipped with a CD-111L chromatography data system and fitted with a Varian reversed-phase C18 column with the following solvent systems: I, CH3 CN-5 mM NH4 OAc buffer, pH 6.4 (68:32 isocratic), flow rate 1.5 mL/min; II, 65-95% water-methanol gradient for 70 min, 1 mL/min; III, 10-90% H2 O-MeOH gradient for 120 min, 1 mL/min, with UV-visible variable- and fixed-wavelength dual detectors at 254, 440, 470 and 520 nm. IR spectra were obtained on a Perkin-Elmer Model 237 Infra Cord with KBr micropellets or in chloroform solutions. UV-visible spectra were obtained on a Gilford 250 spectrophorometer, which, with the addition of a base-line reference compensator (Analog Multiplexer 5053) and thermoprogrammer, auto four cell programmer and thermoelectric cell holder 2577, were used to obtain thermal denaturation curves. Specific rotation values were determined in chloroform solutions with a Cary 60 spectropolarimeter. NMR spectra were obtained in a JEOL FQ-90 MHz spectrometer equipped with Fourier transform. EPR spectra analyses were recorded in a Varian E-9 EPR spectrometer. All elemental analyses were within ±0.4%.

Row | SMILES | P388/ADR % ILS (P388/ADR; at optimal dose) | P388/ADR optimal dose (P388/ADR) | P388/S % ILS (P388/S) | P388/S tumor-free survivors/total on day 60 (P388/S) | P388/S optimal dose (P388/S) | NADPH oxid [1] | percentage stimulation of NADPH oxidation over basal rate [1] | adrenochrome formation (rat hepatic microsomes) | percentage stimulation of adrenochrome formation over basal rate (rat hepatic microsomes) | free-radical intermediate detected by EPR (liver microsomes) | P388/ADR tumor-free survivors/total on day 60 (P388/ADR; at optimal dose)
1 | COc1cccc2c1C(=O)c1c(O)c3c(c(O)c1C2=O)C[C@@](O)(C(=O)CO)C[C@@H]3O[C@H]1C[C@H](N)[C@H](O)[C@H](C)O1 [adriamycin, reference compound] | 33% | 3.5 mg/kg | 97% | 1/8 | 3.0 mg/kg |  |  |  |  |  | 
2 | CCN(CC)C(=O)c1c2nc3c(C(=O)N(CC)CC)ccc(C)c3oc-2c(C)c(=O)c1N [1b] |  |  |  |  |  | 8.9 ± 0.90 nmol min^-1 (mg of protein)^-1 | -2% | 2.13 ± 0.19 nmol min^-1 (mg of protein)^-1 | +1% |  | 
3 | CCN(CC)C(=O)c1c2nc3c(C(=O)N(CC)CC)c4nc(C)oc4c(C)c3oc-2c(C)c(=O)c1N [7b] |  |  |  |  |  | 8.9 ± 0.90 nmol min^-1 (mg of protein)^-1 | -2% | 2.13 ± 0.19 nmol min^-1 (mg of protein)^-1 | +1% | no free-radical intermediates were detectable | 
4 | CO[C@@]12[C@H](COC(N)=O)C3=C(C(=O)C(C)=C(N)C3=O)N1C[C@@H]1N[C@@H]12 [mitomycin C, reference compound] | 400% | 3.0 mg/kg | 136% | 1/8 | 3.0 mg/kg |  |  |  |  |  | 5/8

Reference: patent publication US4680382A, “Analogues of actinomycin D” (priority 1986, dated 1987)
